# Data as given in patent US20050148553A1, “Use of tigecycline, alone, or in combination with rifampin to treat osteomyelitis and/or septic arthritis” (priority 2003, published 2005).
# Assay: Whole body autoradiography after 30-minute 3 mg/kg IV infusion of [^14C]-tigecycline
# Format: in vivo, Sprague-Dawley rats
# Method: Male Sprague-Dawley and Long-Evans rats were obtained from Charles River Breeding Laboratories, Raleigh, N.C., and were quarantined for at least one week prior to the start of the study. […] The dosing solution was diluted and radioassayed directly in Ultima Gold scintillation counting cocktail (Packard Inc.). […] All pumps were calibrated prior to the administration of the compound. Rats were anesthetized with isoflurane prior to cardiac puncture exsanguination at the prescribed times after dosing. […] Control whole blood was collected from male Sprague-Dawley rats into tubes containing sodium heparin. Pooled blood was used to prepare the calibration standards and quality control samples. The standards were used to construct the standard curve for the quantification of radiolabeled drug distribution in tissues of whole blood cryosections. The quality controls, which were embedded in the same CMC block with each rat, were used for assessing intra- and inter-section variation in the thickness of rat whole-body cryosections. […] Immediately following euthanasia, each rat was totally immersed in a bath of hexane and dry ice (−75° C.) until frozen. Each carcass was dried and stored at −30° C. until embedded. […] Each frozen rat was sagitally sectioned at −20° C. A sufficient number of sections were collected to ensure sampling of all tissues of interest. The sections were dehydrated overnight in a cryochamber and then rapidly transferred to a dessicator containing CaSO4 to prevent condensation of atmospheric moisture while equilibrating to room temperature. The sections were mounted on cardboard and labeled with [^14C]-labeled black ink with a unique identification number. […] A small piece of Scotch tape was placed over the dried radioactive ink to prevent the contamination of the storage phosphor screens. Phosphor imaging plates, BAS-SR 2025 (Fuji Photo Film Co., Japan) were exposed to bright visible light for 20 minutes using an IP eraser (Raytest, USA Inc., New Castle, Del.) to remove background radiation. Sections and calibration blood standards were concurrently placed in direct contact with Ips and exposed for 7 days. All sections were stored at room temperature in a lead shielding box to minimize background levels. Phosphor images were generated using a Fujifilm BAS-5000 Bio-Imaging Analyzer and quantitated by MCID M2 Software, version 3.2 (Imaging Research Inc., St. Catherines, Ontario, Canada). The STDs and QCs were analyzed using the circular sampling tool in the MCID software program. Areas of interest in whole-body sections were manually outlined with the regional sampling tool to generate count data. Radioactive concentrations in select tissues were determined by digital analysis of the resulting autoradiograms on the basis of a calibration curve. […] The linear regression curve was then used to determine the concentration of unknown radioactivity of study samples. […] Blood samples were combusted using a Model 307 sample oxidizer (Packard Instrument Company). […] Research Triangle Park, N.C.), which applies a model-independent approach and standard procedures as described in Gibaldi and Perrier. Gibaldi, Pharmacokinetics, 1982. […] For IV infusion dosing, C30 min was the concentration at 30 minutes, the first sampling time point. The maximum plasma concentration (Cmax) and the corresponding time of peak concentration following IV administration were obtained directly by numerical inspection from the individual concentration-time data. The terminal half-life was calculated by the ratio of ln2/λz where λz is derived from the terminal slope of the concentration time curve. The area under the plasma concentration versus time curve from zero to infinity was calculated using the trapezoidal rule, where Clast is the last measurable plasma concentration. […]
smiles,measurement,setting,value
CN(C)c1cc(NC(=O)CNC(C)(C)C)c(O)c2c1C[C@H]1C[C@H]3[C@H](N(C)C)C(O)=C(C(N)=O)C(=O)[C@@]3(O)C(O)=C1C2=O [[^14C]-Tigecycline],Mean concentration of total radioactivity,"Liver, 24 Hrs",160 ng equiv./g
same,Tissue:Plasma Ratio,"Liver, 24 Hrs",10.8
same,Mean concentration of total radioactivity,"Liver, 72 Hrs",22.7 ng equiv./g
same,Tissue:Plasma Ratio,"Liver, 72 Hrs",5.26
same,Mean concentration of total radioactivity,"Liver, 168 Hrs",13.3 ng equiv./g
same,Mean concentration of total radioactivity,"Liver, 336 Hrs",<5.10 ng equiv./g
same,AUC,"Liver, first AUC column",52676 Ng eq hr/g
same,Mean concentration of total radioactivity,"Lung, 0.5 Hrs",2981 ng equiv./g
same,Tissue:Plasma Ratio,"Lung, 0.5 Hrs",3.33
same,Mean concentration of total radioactivity,"Lung, 8.5 Hrs",496 ng equiv./g
same,Tissue:Plasma Ratio,"Lung, 8.5 Hrs",0.984
same,Mean concentration of total radioactivity,"Lung, 24 Hrs",73.1 ng equiv./g
same,Tissue:Plasma Ratio,"Lung, 24 Hrs",4.96
same,Mean concentration of total radioactivity,"Lung, 72 Hrs",13.5 ng equiv./g
same,Tissue:Plasma Ratio,"Lung, 72 Hrs",3.13
same,Mean concentration of total radioactivity,"Lung, 168 Hrs",<5.10 ng equiv./g
same,Mean concentration of total radioactivity,"Lung, 336 Hrs",<5.10 ng equiv./g
same,AUC,"Lung, first AUC column",21263 Ng eq hr/g
same,AUC,Lymph Node,37010 Ng eq hr/g
same,Mean concentration of total radioactivity,"Lymph Node, 0.5 Hrs",3473 ng equiv./g
same,Tissue:Plasma Ratio,"Lymph Node, 0.5 Hrs",3.88
same,Mean concentration of total radioactivity,"Lymph Node, 8.5 Hrs",1276 ng equiv./g
same,Tissue:Plasma Ratio,"Lymph Node, 8.5 Hrs",2.53
same,Mean concentration of total radioactivity,"Lymph Node, 24 Hrs",180 ng equiv./g
same,Tissue:Plasma Ratio,"Lymph Node, 24 Hrs",12.2
same,Mean concentration of total radioactivity,"Lymph Node, 72 Hrs",29.1 ng equiv./g
same,Tissue:Plasma Ratio,"Lymph Node, 72 Hrs",6.75
same,Mean concentration of total radioactivity,"Lymph Node, 168 Hrs",<5.10 ng equiv./g
same,Mean concentration of total radioactivity,"Lymph Node, 336 Hrs",<5.10 ng equiv./g
same,AUC,"Lymph Node, first AUC column",36478 Ng eq hr/g
same,AUC,Muscle,34910 Ng eq hr/g
same,Mean concentration of total radioactivity,"Muscle, 0.5 Hrs",2260 ng equiv./g
same,Tissue:Plasma Ratio,"Muscle, 0.5 Hrs",2.52
same,Mean concentration of total radioactivity,"Muscle, 8.5 Hrs",1863 ng equiv./g
same,Tissue:Plasma Ratio,"Muscle, 8.5 Hrs",3.70
same,Mean concentration of total radioactivity,"Muscle, 24 Hrs",85.8 ng equiv./g
same,Tissue:Plasma Ratio,"Muscle, 24 Hrs",5.801
same,Mean concentration of total radioactivity,"Muscle, 72 Hrs",6.24 ng equiv./g
same,Tissue:Plasma Ratio,"Muscle, 72 Hrs",1.45
same,Mean concentration of total radioactivity,"Muscle, 168 Hrs",<5.10 ng equiv./g
same,Mean concentration of total radioactivity,"Muscle, 336 Hrs",<5.10 ng equiv./g
same,AUC,"Muscle, first AUC column",34833 Ng eq hr/g
same,AUC,Pancreas,33014 Ng eq hr/g
same,Mean concentration of total radioactivity,"Pancreas, 0.5 Hrs",4437 ng equiv./g
same,Tissue:Plasma Ratio,"Pancreas, 0.5 Hrs",4.96
same,Mean concentration of total radioactivity,"Pancreas, 8.5 Hrs",971 ng equiv./g
same,Tissue:Plasma Ratio,"Pancreas, 8.5 Hrs",1.93
same,Mean concentration of total radioactivity,"Pancreas, 24 Hrs",70.0 ng equiv./g
same,Tissue:Plasma Ratio,"Pancreas, 24 Hrs",4.75
same,Mean concentration of total radioactivity,"Pancreas, 72 Hrs",7.41 ng equiv./g
same,Tissue:Plasma Ratio,"Pancreas, 72 Hrs",1.72
same,Mean concentration of total radioactivity,"Pancreas, 168 Hrs",<5.10 ng equiv./g
same,Mean concentration of total radioactivity,"Pancreas, 336 Hrs",<5.10 ng equiv./g
same,AUC,"Pancreas, first AUC column",32908 Ng eq hr/g
same,AUC,Pituitary,45164 Ng eq hr/g
same,Mean concentration of total radioactivity,"Pituitary, 0.5 Hrs",3693 ng equiv./g
same,Tissue:Plasma Ratio,"Pituitary, 0.5 Hrs",4.13
same,Mean concentration of total radioactivity,"Pituitary, 8.5 Hrs",2014 ng equiv./g
same,Tissue:Plasma Ratio,"Pituitary, 8.5 Hrs",4.00
same,Tissue:Plasma Ratio,"Pituitary, 24 Hrs",9.79
same,Tissue:Plasma Ratio,"Pituitary, 72 Hrs",4.36
same,AUC,"Pituitary, first AUC column",44882 Ng eq hr/g
same,AUC,Plasma,10652 Ng eq hr/g
same,Tissue:Plasma Ratio,"Plasma, 0.5 Hrs",1.00
same,Tissue:Plasma Ratio,"Plasma, 8.5 Hrs",1.00
same,Tissue:Plasma Ratio,"Plasma, 24 Hrs",1.00
same,Tissue:Plasma Ratio,"Plasma, 72 Hrs",1.00
same,AUC,"Plasma, first AUC column",10643 Ng eq hr/g
same,AUC,Salivary Gland,110979 Ng eq hr/g
same,Tissue:Plasma Ratio,"Salivary Gland, 0.5 Hrs",6.45
same,Tissue:Plasma Ratio,"Salivary Gland, 8.5 Hrs",12.53
same,Tissue:Plasma Ratio,"Salivary Gland, 24 Hrs",20.3
same,Tissue:Plasma Ratio,"Salivary Gland, 72 Hrs",7.32
same,AUC,"Salivary Gland, first AUC column",110558 Ng eq hr/g
same,AUC,Skin,36471 Ng eq hr/g
same,Tissue:Plasma Ratio,"Skin, 0.5 Hrs",2.15
same,Tissue:Plasma Ratio,"Skin, 8.5 Hrs",1.14
same,Tissue:Plasma Ratio,"Skin, 24 Hrs",16.9
same,Tissue:Plasma Ratio,"Skin, 72 Hrs",19.3
same,AUC,"Skin, first AUC column",31819 Ng eq hr/g
same,AUC,Spleen,70522 Ng eq hr/g
same,Cmax,Spleen,6627 Ng equiv/g
same,Tissue:Plasma Ratio,"Spleen, 0.5 Hrs",7.40
same,Tissue:Plasma Ratio,"Spleen, 8.5 Hrs",3.36
same,Tissue:Plasma Ratio,"Spleen, 24 Hrs",32.3
same,Tissue:Plasma Ratio,"Spleen, 72 Hrs",16.7
same,AUC,"Spleen, first AUC column",69638 Ng eq hr/g
same,Tissue:Plasma Ratio,"Testes, 0.5 Hrs",0.388
same,Tissue:Plasma Ratio,"Testes, 8.5 Hrs",0.716
same,Tissue:Plasma Ratio,"Testes, 24 Hrs",8.08
same,Tissue:Plasma Ratio,"Testes, 72 Hrs",3.80
same,AUC,"Testes, first AUC column",9975 Ng eq hr/g
same,AUC,"Testes, second AUC column",10323 Ng eq hr/g
same,AUC,"Testes, second AUC column, listed as [^14C]-tigecycline",10303 Ng eq hr/g
same,AUC,Thymus,35430 Ng eq hr/g
same,Tissue:Plasma Ratio,"Thymus, 0.5 Hrs",2.82
same,Tissue:Plasma Ratio,"Thymus, 8.5 Hrs",3.16
same,Tissue:Plasma Ratio,"Thymus, 24 Hrs",10.7
same,Tissue:Plasma Ratio,"Thymus, 72 Hrs",3.55
same,AUC,"Thymus, first AUC column",35204 Ng eq hr/g
same,AUC,Thyroid,330047 Ng eq hr/g
same,Tissue:Plasma Ratio,"Thyroid, 0.5 Hrs",3.34
same,Tissue:Plasma Ratio,"Thyroid, 8.5 Hrs",3.50
same,Tissue:Plasma Ratio,"Thyroid, 24 Hrs",24.0
same,Tissue:Plasma Ratio,"Thyroid, 72 Hrs",56.0
same,Tissue:Plasma Ratio,"Thyroid, 72 Hrs, listed as [^14C]-tigecycline",56
same,AUC,"Thyroid, first AUC column",113022 Ng eq hr/g
same,AUC,lung,21523 Ng eq hr/g
same,elimination half-lives across tissues,"male, Sprague-Dawley, rat, in vivo",5 to 217 h
